This is an account of results in patent US11351148B1, “Pharmaceutical composition Mix A to treat health conditions associated with elevated glucose levels” (priority 2021, dated 2022).

The subject of the experiment is skeletal muscle cells. Kind of experiment: In vitro uptake of 2-DG (glucose derivative) in skeletal muscle cells. The experiment is classed as cell-based, rat. As for the experimental part:
The assay was performed according to manufactures' protocol. Briefly, […] L6 cell line cells were seeded and grown to confluency in white 96 well plates in culture medium containing 10% FBS (serum). After treating with various nutrients with or without insulin cells were starved by incubating in DMEM without glucose and serum. Samples were processed using Glucose Uptake Assay kit according to manufacturer's protocol that uses the glucose analog 2-deoxyglucose (2-DG) to detect and quantify glycose uptake in cells. Luminescence was measured by a Tecan luminometer. 4 repetitions were performed for each treatment when testing individual components and 3 repetitions when testing mixes.

For `[Cr]` [chromium], the “stimulating effect on glucose uptake by individual compounds compared to controls” value (FIG. 6, 0.0001 ug/ml, 24 h at 37° C.) was “highest stimulating effect”.

Consider “Insulin: human insulin obtained from Sigma”, for which the “glucose uptake by the cells, insulin alone” value (FIG. 8, insulin alone at different concentrations) is on record as “concentration dependent increase”.
